Entries after “also recorded” stand apart in the source; their conditions may differ.
Legend:
[1] = test system: human lymphocytes; test: Concanavalin A-induced proliferation of human lymphocytes ([3H]-thymidine); format: cell-based; settings: Lymphocyte, 72 h, 250 μM test compound, 2.5 μg/ml Concanavalin A, 3 days, 2 experiments
Method: (§1) Effect of Compounds on Human Lymphocyte Proliferation Peripheral blood mononuclear cells were isolated from heparinized blood from healthy volunteers by density gradient centrifugation as described by Bain and Pshyk, Transplantation Proc, 4:163-164 (1972). Cell proliferation induced by Concanavalin A was measured in a standard assay such as described in Soderstrom et at., Scand J Immunol, 32:503-516 (1990) using 5% fetal bovine serum in the culture medium. The reaction mixture (final concentrations) consisted of 200 000 cells stimulated with 2.5 μg/ml Concanavalin A and test compounds in a total volume of 0.2 ml. The test compounds were added at the start of the assay, which was run for a total of three days with addition ofradioactive [3H]-thymidine during the last 18 h. Cell bound radioactivity was measured in a liquid scintillation counter.

[2] = test system: Human Granulocytes; test: FMLP-induced superoxide production of human granulocytes, 10 μM test compound; format: cell-based; settings: 10 nM FMLP, 400 000 granulocytes
Method: Effects of Test Compounds on Superoxide Production of Human Granulocytes
(§2) Granulocytes were isolated from the heparinized blood from healthy volunteers. The superoxide assay was essentially that of J. M. McCord and I Fridovich (J. Biol. Chem. 244:6049-6055 (1969)) as modified by G Carlin et al. (Pharmacol. Toxicol 65:121-127 (1989)). The reaction mixture contained (final concentrations) 125 μM cytochrome C in Dulbeccos phosphate buffer with Mg and Ca, 10 μM test compound and 400 000 granulocytes treated with 5 μg/ml of cytochalasin B immediately before the experiment. This reaction mixture was preincubated at 37° C. for 10 minutes, whereafter 10 nM N-formyl-L-methionyl-L-leucyl-L-phenylalanine was added to start the reaction, making the final volume 1 ml. After 10 minutes the tubes were centrifuged and the absorbance of the supernatant at 540 and 550 nm was measured. The superoxide production was expressed as the difference in absorbance at these wavelengths.

[3] = test system: Human Granulocytes; test: FMLP-induced superoxide production of human granulocytes, 100 μM test compound; format: cell-based; settings: 100 nM FMLP, 600 000 granulocytes
Method: Effects of Test Compounds on Superoxide Production of Human Granulocytes at 100 um Concentration
as §2, with “et at.” for “et al.”, “Ca, 100” for “Ca, 10”, “and 600” for “and 400”, “whereafter 100” for “whereafter 10”

[4] = test system: human lymphocytes and granulocytes; test: Overall activity judged from the results of Examples 40 to 42
Method: as §1, with “Peripheral” for “Effect of Compounds on Human Lymphocyte Proliferation Peripheral”
as §2
as §2, with “et at.” for “et al.”, “Ca, 100” for “Ca, 10”, “and 600” for “and 400”, “whereafter 100” for “whereafter 10”

[5] = test system: T-lymphocytes; settings: cited from earlier work
[6] = rheumatoid arthritis, ulcerative colitis, ankylosing spondylitis, reactive arthritis, psoriasis; cited from earlier work

Question: For `Cc1cccnc1NS(=O)(=O)c1ccc(C#Cc2ccc(O)c(C(=O)O)c2)cc1` [Example 2, 2-Hydroxy-5-[[4-[(3-methyl-2-pyridinylamino)-sulfonyl]phenyl]ethynyl]benzoic acid], which inhibition at 250 µM [1] is on record?
Answer: 99.5%

Question: And the inhibition at 10 µM [2]?
Answer: 86%

Question: What about the inhibition at 100 µM [3] of the same molecule?
Answer: 94.1%

Question: What about the Overall activity ranking [4] of the same molecule?
Answer: most active; also recorded: considered to be the best one

Question: What does the source list for `O=C(O)c1cc(C=Cc2ccc(S(=O)(=O)Nc3ncccc3OCc3ccccc3)cc2)ccc1O` [Example 16, 2-Hydroxy-5-[2-[4-[[3-(phenylmethoxy)-2-pyridinylamino]sulfonyl]phenyl]ethenyl]benzoic acid]?
Answer: inhibition at 250 µM [1]: 95.4%; inhibition at 10 µM [2]: 94.6%; Overall activity ranking [4]: most active

Question: What does the source list for `O=C(O)c1cc(C=Cc2ccc(S(=O)(=O)Nc3ccc(Cl)cn3)cc2)ccc1O` [Example 17, 5-[2-[4-[(5-Chloro-2-pyridinylamino)sulfonyl]phenyl]ethenyl]-2hydroxybenzoic acid]?
Answer: inhibition at 250 µM [1]: 99.5%; inhibition at 10 µM [2]: 71.9%; Overall activity ranking [4]: most active

Question: With `O=C(O)c1cc(C=Cc2ccc(S(=O)(=O)Nc3nc4ccc(F)cc4s3)cc2)ccc1O` [Example 21, 2-Hydroxy-5-[2-[4-[[6-fluoro-(2-benzo[d]thiazolyl)]aminosulfonyl]phenyl]ethenyl]benzoic acid] as the molecule, how does the inhibition at 250 µM [1] read?
Answer: 99.8%

Question: And the inhibition at 10 µM [2]?
Answer: 93%

Question: And the Overall activity ranking [4]?
Answer: most active

Question: With `CN(c1ccccn1)S(=O)(=O)c1ccc(C=Cc2ccc(O)c(C(=O)O)c2)cc1` [Example 22, 2-Hydroxy-5-[2-[4-[N-methyl-(2-pyridinyl)aminosulfonyl]phenyl]ethenyl]benzoic acid] as the molecule, how does the inhibition at 250 µM [1] read?
Answer: 99.8%

Question: And the inhibition at 10 µM [2]?
Answer: 85.5%

Question: And the Overall activity ranking [4]?
Answer: most active

Question: With `O=C(C=Cc1ccc(S(=O)(=O)Nc2ccccn2)cc1)c1ccc(O)c(C(=O)O)c1` [Example 29, 2-Hydroxy-5-[1-oxo-3-[4-[(2-pyridinylamino)sulfonyl]phenyl]-2-propenyl]benzoic acid] as the molecule, how does the inhibition at 250 µM [1] read?
Answer: 66%

Question: And the inhibition at 10 µM [2]?
Answer: 33.4%

Question: With `Cc1ccnc(NS(=O)(=O)c2ccc(C#Cc3ccc(O)c(C(=O)O)c3)cc2)c1` [Example 33, 2-Hydroxy-5-[[4-[(4-methyl-2-pyridinyl)amino-sulfonyl]phenyl]ethynyl]benzoic acid] as the molecule, how does the inhibition at 100 µM [3] read?
Answer: 92.1%

Question: And the Overall activity ranking [4]?
Answer: most active

Question: With `Cc1cccnc1NS(=O)(=O)c1ccc(C#Cc2cc(C(=O)O)c(O)cc2F)cc1` [Example 37, 4-Fluoro-2-hydroxy-5-[[4-[(3-methyl-2-pyridinylamino)sulfonyl]phenyl]ethynyl]benzoic acid] as the molecule, how does the inhibition at 250 µM [1] read?
Answer: 100%

Question: And the inhibition at 100 µM [3]?
Answer: 97.5%

Question: And the Overall activity ranking [4]?
Answer: most active

Question: With `Cc1cccnc1NS(=O)(=O)c1ccc(C=Cc2cc(C(=O)O)c(O)cc2F)cc1` [Example 38, 4-Fluoro-2-hydroxy-5-[2-[4-[(3-methyl-2-pyridinylamino)sulfonyl]phenyl]ethenyl]benzoic acid] as the molecule, how does the inhibition at 250 µM [1] read?
Answer: 100%

Question: And the inhibition at 100 µM [3]?
Answer: 98.7%

Question: And the Overall activity ranking [4]?
Answer: most active

Question: For `Cc1cccnc1NS(=O)(=O)c1cccc(C#Cc2ccc(O)c(C(=O)O)c2)c1` [Example 39, 2-Hydroxy-5-[[3-[(3-methyl-2-pyridinylamino)sulfonyl]phenyl]ethynyl]benzoicacid], which inhibition at 250 µM [1] is on record?
Answer: 100%

Question: And the inhibition at 100 µM [3]?
Answer: 93.5%

Question: What about the Overall activity ranking [4] of the same molecule?
Answer: most active

Question: Which results are given for `O=C(O)c1cc(/N=N/c2ccc(S(=O)(=O)Nc3ccccn3)cc2)ccc1O` [Sulfasalazine, reference compound]?
Answer: inhibition at 250 µM [1]: 53.7%; inhibition at 10 µM [2]: 63.5%; inhibition at 100 µM [3]: 65.4%; Inhibition of activation and proliferation of T-lymphocytes [5]: inhibits activation and proliferation of T-lymphocytes; Clinical effectiveness in autoimmune diseases [6]: clinically effective

Reference: patent publication US5403930A, “Substituted salicylic acids” (Pharmacia AB, priority 1991, dated 1995)
